Data on one compound can be found in patent US9120795B2, “Crystalline form of a β-lactamase inhibitor” (Cubist Pharmaceuticals, Inc., priority 2013, dated 2015).

The subject of one assay is Cfr.568 (AmpC, clinical). As to the kind of experiment: Standard BLI potentiation MIC assay. The class given is cell-based, Citrobacter spp. Particulars: Citrobacter, read-out: MIC of β-lactam with BLI. As for the experimental part: The experimental protocol was performed according to Clinical and Laboratory Standards Institute (CLSI) guidelines with modifications as described below (CLSI guidelines can be derived from the CLSI document M07-A9 published in January 2012: “Methods for Dilution Antimicrobial Susceptibility Tests for Bacteria That Grow Aerobically; Approved Standard-Ninth Edition”).
To prepare for MIC testing, frozen glycerol stocks of clinical isolates (Klebsiella pneumoniae, Eschericia coli, Enterobacter spp, Citrobacter spp, or Pseudomonas aeruginosa) were used to streak for isolated colonies on rich, non-selective, tryptic soy agar containing 5% sheep's blood (TSAB). Frozen glycerol stocks of laboratory engineered, isogenic E. coli strains, which contain cloned β-lactamase expressing plasmids were used to streak for isolated colonies on rich, selective LB agar supplemented with 25 μg/mL tetracycline to maintain the plasmid. All strains were incubated at 37° C. for 18-24 hrs. […]
Plates were incubated for 18-20 hours at 37° C. with aeration (200 rpm). Following incubation, growth was confirmed visually placing plates over a viewing apparatus (stand with a mirror underneath) and then OD600 was measured using a SpectraMax 340PC384 plate reader (Molecular Devices, Sunnyvale, Calif.). Growth was defined as turbidity that could be detected with the naked eye or achieving minimum OD600 of 0.1. […]

The next assay has as its system Eco isogenic, CTX-M-15. As to the kind of experiment: Synergy MIC (sMIC) assay. The format is cell-based, E. coli. Particulars: CTX-M-15, isogenic Eco; CXA-101 at 4 μg/mL. As for the experimental part:
(§1) The synergy MIC (sMIC) assay determines the concentration of the BLI required to potentiate the activity of a fixed concentration of a β-lactam antibiotic against β-lactamase producing bacterial strains. The experimental protocol was performed according to Clinical and Laboratory Standards Institute (CLSI) guidelines with modifications as described below (CLSI guidelines can be derived from the CLSI document M07-A9 published in January 2012: “Methods for Dilution Antimicrobial Susceptibility Tests for Bacteria That Grow Aerobically; Approved Standard-Ninth Edition”). The assay is set-up by serially diluting the BLI across 11 of the 12 wells in each row of a 96-well broth microdilution assay plate, adding the β-lactam at a fixed concentration to all wells in the assay plate, inoculating the assay plate with bacterial strains, and determining the lowest concentration of BLI required to inhibit overnight bacterial growth.
(§2) To prepare for MIC testing, frozen glycerol stocks of clinical isolates (Klebsiella pneumoniae, Eschericia coli, Enterobacter spp, Citrobacter spp, or Pseudomonas aeruginosa) were used to streak for isolated colonies on rich, non-selective, tryptic soy agar containing 5% sheep's blood (TSAB). Frozen glycerol stocks of laboratory engineered, isogenic E. coli strains, which contain cloned β-lactamase expressing plasmids were used to streak for isolated colonies on rich, selective LB agar supplemented with 25 μg/mL tetracycline to maintain the plasmid. All strains were incubated at 37° C. for 18-24 hrs.
(§3) On the day of testing, primary cultures were started by scraping off 5-10 colonies from the TSAB plates containing clinical strains or the tetracycline supplemented LB plates containing engineered strains. The clinical strain material was suspended in ˜5 mL of cation adjusted Mueller Hinton Broth (CAMHB) in 14 mL culture tubes. The engineered strain material was suspended in CAMHB (supplemented with tetracycline at 25 μg/mL) in 14 mL culture tubes. All strains were incubated at 37° C. with aeration (200 rpm) for ˜2 hrs until the OD600 was ≧0.1.
(§4) The two compound components of the assay were each prepared in CAMHB and added to the 96-well broth microdilution assay plates. 50 μL of the BLI was added to each well of the assay plate in 2-fold dilutions with final concentrations ranging from 128 to 0.13 μg/mL. 25 μL of the β-lactam was added to all wells in the broth microdilution plates at a final concentration of 4 μg/mL. Inoculum cultures were prepared by standardizing the primary cultures to OD600=0.1 and then adding 20 μL of the adjusted primary culture per 1 mL CAMHB for clinical strains or CAMHB (supplemented with tetracycline at 100 μg/mL) for isogenic strains, so that the final inoculum density was ˜10^5 colony forming units per milliliter. Diluted inoculum cultures were used to inoculate 25 μL per well in 96-well broth microdilution assay plates. […]
(§5) Plates were incubated for 18-20 hours at 37° C. with aeration (200 rpm). Following incubation, growth was confirmed visually placing plates over a viewing apparatus (stand with a mirror underneath) and then OD600 was measured using a SpectraMax 340PC384 plate reader (Molecular Devices, Sunnyvale, Calif.). Growth was defined as turbidity that could be detected with the naked eye or achieving minimum OD600 of 0.1. sMIC values were defined as the lowest concentration producing no visible turbidity. […]

A further assay relates to Eco isogenic, KPC-2. As to the kind of experiment: Synergy MIC (sMIC) assay. The class given is cell-based, E. coli. To be noted: KPC-2, isogenic Eco; CXA-101 at 4 μg/mL. As for the experimental part:
as §1, §2, §3, §4, §5

A further assay relates to Eco isogenic, OXA-15. As to the kind of experiment: Synergy MIC (sMIC) assay. The class given is cell-based, E. coli. To be noted: OXA-15, isogenic Eco; CXA-101 at 4 μg/mL. As for the experimental part: as §1, §2, §3, §4, §5
A further assay has as its system Eco isogenic, P99. The assay can be described thus: Synergy MIC (sMIC) assay. The format is cell-based, E. coli. Particulars: CXA-101 at 4 μg/mL. As for the experimental part:
as §1, §2, §3, §4, §5

A further assay deals with Eco isogenic, SHV-12. The assay can be described thus: Synergy MIC (sMIC) assay. The class given is cell-based, E. coli. Particulars: SHV-12, isogenic Eco; CXA-101 at 4 μg/mL. As for the experimental part:
as §1, §2, §3, §4, §5

On to `O=C1N2C[C@@H](CC[C@H]2c2nnco2)N1OS(=O)(=O)[O-].[Na+]` [Hydrate 1, sodium (2S,5R)-2-(1,3,4-oxadiazol-2-yl)-7-oxo-1,6-diazabicyclo[3.2.1]octan-6-yl sulfate], for which the MIC in the assay on Cfr.568 (AmpC, clinical) lay in the range of 1 to 2 µg/mL. The sMIC result in the assay on Eco isogenic, CTX-M-15 is reported as “A (A = 0.25-0.5 μg/mL)”; with Eco isogenic, KPC-2, “AA (AA = <0.25 μg/mL)”; with Eco isogenic, OXA-15, “B (B = 1-2 μg/mL)”; in the assay on Eco isogenic, P99, “AA (AA = <0.25 μg/mL)”; with Eco isogenic, SHV-12, “B (B = 1-2 μg/mL)”.
